# Read-outs that look alike come from different tables or passages of the source.
# Legend:
# [1] = tested on: nicotinic acetylcholine receptors; experiment: inhibition of specific binding of ^3 H-methylcarbamylcholine (^3 H-MCC) in rat brain tissue; conditions: rat cortical receptors; for Oxo/MCC Ratio: IC50 ^3 H-Oxo / IC50 ^3 H-MCC; for IC50: ^3 H-MCC 2 nM, 0° C., 60 min
# From the text: The pharmacological properties of the compounds of the invention can be illustrated by determining their capability to inhibit the specific binding of ^3 H-methylcarbamylcholine (^3 H-MCC) (Abood and Grassi, Biochem. Pharmacol., Vol. 35, pp. 4199-4202, (1986)).
# ^3 H-MCC labels the nicotinic receptors in the CNS. The inhibitory effect on ^3 H-MCC binding reflects the affinity for nicotinic acetylcholine receptors.
# Fresh or frozen rat, brain tissue (hippocampus or cortex) was homogenized in assay buffer (50 mM Tris-HCl, pH 7.4, 120 mM NaCl, 5 mM KCl, 2 mM CaCl2, 1 mM MgCl2) and centrifuged for 10 min. at 40.000×g. Pellets were subsequently reconstituted in assay buffer and an appropriate amount of tissue sample was mixed in tubes with ^3 H-methylcarbamylcholine (NEN, NET-951; final concentration 2 nM) and test drug. The tubes were incubated at 0° C. for 60 min. Unbound ligand was separated from bound ligand by vacuum filtration through GF/B filters presoaked in 0.5 % polyethylenimine. Filters were washed three times with 5 ml wash buffer (50 mM Tris-HCl, pH 7.4) and transferred to vials. 4 ml scintillation fluid was added and the radioactivity was measured by scintillation counting. Unspecific binding was measured with 10 μM nicotine.
# The IC50 values of the test compounds were determined by nonlinear regression analyses (GraphPad InPlot).
# Table I illustrates the affinity of the compounds of the present invention for nicotinic and muscarinic receptors as determined by ^3 H-MCC and ^3 H-Oxo binding to rat cortical receptors. The compounds, however, show selective affinity for nicotinic receptors as compared to muscarinic receptors, i.e OXO/MCC>1.
# [2] = molecular target: muscarinic acetylcholine receptors; experiment: inhibition of specific binding of ^3 H-Oxotremorine-M (^3 H-Oxo) in rat cortex; conditions: rat cortical receptors; 1.0 nM radioligand, 25° C., 30 min
# From the text: Furthermore, the pharmacological properties of the compounds of the invention can also be illustrated by determining their capability to inhibit the specific binding of ^3 H-Oxotremorine-M (^3 H-Oxo). Birdsdall N. J. M., Hulme E. C., and Burgen A. S. V. (1980). "The Character of Muscarinic Receptors in Different Regions of the Rat Brain". Proc. Roy. Soc. London (Series B) 207,1.
# ^3 H-Oxo labels muscarinic receptor in the CNS (with a preference for agonist domains of the receptors). Three different sites are labelled by ^3 H-Oxo. […] Using the present experimental conditions only the high and medium affinity sites are determined.
# The inhibitory effects of compounds on ^3 H-Oxo binding reflects the affinity for muscarinic acetylcholine receptors.
# All preparations are performed at 0-4° C. unless otherwise indicated. Fresh cortex (0.1-1 g) from male Wistar rats (150-250 g) is homogenized for 5-10 s in 10 ml 20 mM Hepes pH: 7.4, with an Ultra-Turrax homogenizer. The homogenizer is rinsed with 10 ml of buffer and the combined suspension centrifuged for 15 min. at 40,000×g. The pellet is washed three times with buffer. In each step the pellet is homogenized as before in 2×10 ml of buffer and centrifuged for 10 min. at 40,000×g.
# The final pellet is homogenized in 20 mM Hepes pH: 7.4 (100 ml per g of original tissue) and used for binding assay. Aliquots of 0.5 ml is added 25 μl of test solution and 25 μl of ^3 H-Oxotremorine (1.0 nM, final concentration) mixed and incubated for 30 min. at 25° C. Non-specific binding is determined in triplicate using arecoline (1 μg/ml, final concentration) as the test substance. After incubation samples are added 5 ml of ice-cold buffer and poured directly onto Whatman GF/C glass fiber filters under suction and immediately washed 2 times with 5 ml of ice-cold buffer. The amount of radioactivity on the filters are determined by conventional liquid scintillation counting. Specific binding is total binding minus non specific binding.
# Test substances are dissolved in 10 ml water (if necessary heated on a steam-bath for less than 5 min.) at a concentration of 2.2 mg/ml. 25-75% inhibition of specific binding must be obtained before calculation of IC50. The test value will be given as IC50 (the concentration (nM) of the test substance which inhibits the specific binding of ^3 H-Oxo by 50%).
# IC50 =(applied test substance concentration)×(Cx /Co
# where Co is specific binding in control assays and Cx is the specific binding in the test assay. (The calculations assume normal mass-action kinetics).
# Table I illustrates the affinity of the compounds of the present invention for nicotinic and muscarinic receptors as determined by ^3 H-MCC and ^3 H-Oxo binding to rat cortical receptors. […]
# dopaminergic effects = conditions: various behavioral models; cited from earlier work
# Tourette's syndrome = conditions: in vivo; cited from earlier work
# attention and memory [3] = conditions: Alzheimer's disease patients; cited from earlier work
# prefrontal neurons = conditions: cited from earlier work
# substantia nigra = conditions: chronic nicotine; lesioning; cited from earlier work
# dopamine release = conditions: nucleus accumbens compared with striatum; cited from earlier work
# attention and memory [4] = conditions: healthy humans; cited from earlier work
# [5] = molecular target: muscarinic acetylcholine receptors; conditions: read-out: affinity of site labelled by ^3 H-Oxo, cited from earlier work
# cognitive function = conditions: age related; cited from earlier work
Compound,Oxo/MCC Ratio [1],IC50 [1],IC50 [2],other results
"CCNc1oncc1C1=CCCN(C)C1.O=C(O)C(=O)O [Compound 5, 3-(5-ethylamino-4-isoxazolyl)-1,2,5,6-tetrahydro-1-methylpyridine oxalate]",23,62 nM,1400 nM,
CN1CCCC1c1cccnc1 (centres unmarked) [nicotine],,,,potentiation of dopaminergic effects (dopaminergic effects): potentiate dopaminergic effects in various behavioral models; effects in Tourette's syndrome (Tourette's syndrome): beneficial effects in Tourette's syndrome; attention and memory (attention and memory [3]): improved attention and memory; reversal of inactivation of prefrontal neurons (prefrontal neurons): nicotinic reversal of inactivation of prefrontal neurons; protection against cell loss in the substantia nigra (substantia nigra): may protect against cell loss in the substantia nigra; stimulation of dopamine release (dopamine release): stimulates dopamine release in the nucleus accumbens more potently than in striatum; attention and memory (attention and memory [4]): improved attention and memory in healthy humans
"C[N+](C)(C)CC#CCN1CCCC1=O [^3 H-Oxo, ^3 H-Oxotremorine-M]",,,,"Kd ([5]; high affinity site): 1.8 nM; Kd ([5]; medium affinity site): 20 nM; Kd ([5]; third (lowest affinity) site, not determined under present conditions): 3000 nM"
"CN1CCC=C(c2cnoc2NCc2ccccc2)C1.O=C(O)C(=O)O [Compound 14, 3-(5-Benzylamino-4-isoxazolyl)-1,2,5,6-tetrahydro-1-methylpyridine oxalate]",47,85 nM,4000 nM,
CNC1(C)C2CCC(C2)C1(C)C (centres unmarked) [mecamylamine],,,,cognitive impairment (cognitive function): cause cognitive impairment in an age related way
"CCCNc1oncc1C1=CCCN(C)C1.O=C(O)C(=O)O [Compound 7, 3-(5-Propylamino-4-isoxazolyl)-1,2,5,6-tetrahydro-1-methylpyridine oxalate]",130,40 nM,5200 nM,
"CNc1oncc1C1=CCCN(C)C1.O=C(O)C(=O)O [Compound 3, 3-(5-methylamino-4-isoxazolyl)-1,2,5,6-tetrahydro-1-methylpyridine oxalate]",19,230 nM,4400 nM,

# Source: patent US5994373A, “Substituted azacyclic compounds” (Novo Nordisk A/S Novo Alle DK 2880, priority 1995, dated 1999)
